In patent publication US10307407B2, “9H-pyrimido [4,5-B] indoles as BET bromodomain inhibitors” (THE REGENTS OF THE UNIVERSITY OF MICHIGAN, priority 2015, dated 2019):
pIC50: −log10 of the molar value.

Tests used:
recombinant BRD4 BD1 = molecular target: T1, recombinant BRD4 BD1 (Homo sapiens, UniProt O60885); test: Competitive fluorescence-polarization (FP) binding assay, BRD4 BD1; conditions: FAM labeled probe 1.5 nM, protein 10 nM, pH 6.5
T1 construct: recombinant BRD4 BD1 and BRD4 BD2 proteins
Method: (§1) Fluorescence Polarization (FP) competitive binding studies were carried out using a FAM labeled fluorescent probe (ZBA248 or BRD-1F) to determine binding affinities of representative Compounds of the Disclosure for recombinant BRD4 BD1 and BRD4 BD2 proteins. For example, equilibrium dissociation constants (Kd) values of ZBA248 to these six proteins were determined from protein saturation experiments by monitoring the total fluorescence polarization of mixtures composed with the fluorescent probe at a fixed concentration and proteins with increasing concentrations up to full saturation. Serial dilutions of testing protein were mixed with ZBA248 to a final volume of 200 μl in the assay buffer. In order to achieve large dynamic rages, particularly for BD1 bromodomains, 100 mM phosphate buffer (pH=6.5, 0.01% Triton X-100 (Sigma, 282103) being added right before assays) was used as the assay buffer. Final ZBA248 concentration was 1.5 nM for all proteins. Plates were incubated at room temperature for 30 minutes with gentle shaking to assure equilibrium. FP values in millipolarization units (mP) were measured using the Infinite M-1000 plate reader (Tecan U.S., Research Triangle Park, N.C.) in Microfluor 1 96-well, black, round-bottom plates (Thermo Scientific, Waltham, Mass.) at an excitation wavelength of 485 nm and an emission wavelength of 530 nm. Kd values of ZBA248 were calculated by fitting the sigmoidal dose-dependent FP increases as a function of protein concentrations using Graphpad Prism 6.0 software (Graphpad Software, San Diego, Calif.).
(§2) The IC50 and Ki values of representative Compounds of the Disclosure were determined in a competitive binding experiment as described above. Mixtures of 10 μl of the tested compounds in assay buffer with 40% Ethylene Glycol and 190 μl of preincubated protein/probe complex solution in the assay buffer (100 mM potassium phosphate, pH 6.5, 0.01% Triton X-100) were added into assay plates which were incubated at room temperature for 30 minutes with gentle shaking. Final concentrations of proteins were 10 and 6 nM in assays for BD1 and BD2 of BRD4, respectively. Final probe concentration is 1.5 nM in all assays. Negative controls containing protein/probe complex only (equivalent to 0% inhibition), and positive controls containing only free probes (equivalent to 100% inhibition), were included in each assay plate. FP values were measured as described above. IC50 values were determined by nonlinear regression fitting of the competition curves. Instead of being calculated from IC50 values as described before, Ki values of competitive inhibitors were obtained directly by nonlinear regression fitting as well, based upon the Kd values of the probe to different proteins, and concentrations of the proteins and probes in the competitive assays (Wang, FEBS Lett. 360; 111 (1995); Zhang et al., Analytical Biochemistry, 331; 138 (2004)).
(§3) Binding affinities of representative Compounds of the Disclosure to BRD4 BD1 and BRD4 BD2 proteins in competitive, fluorescence-polarization assays are presented in Table 2.

recombinant BRD4 BD2 = molecular target: T2, recombinant BRD4 BD2 (Homo sapiens, UniProt O60885); test: Competitive fluorescence-polarization (FP) binding assay, BRD4 BD2; conditions: FAM labeled probe 1.5 nM, protein 6 nM, pH 6.5
T2 construct: recombinant BRD4 BD1 and BRD4 BD2 proteins
Method: as §1, §2, §3

MDA-MB-231 cells = test: Cell growth inhibition, 4-day proliferation assay (WST), MDA-MB-231; format: cell-based; conditions: Homo sapiens, MDA-MB-231, 96 h, breast cancer cell line, 4 days treatment
Method: (§4) The effect of representative Compounds of the Disclosure on cell viability was determined in a 4-day proliferation assay. Cells were maintained in the appropriate culture medium with 10% FBS at 37° C. and an atmosphere of 5% CO2. All the cell lines were used within three months of thawing fresh vials.
(§5) Cells were seeded in 96-well flat bottom (Corning COSTAR, Corning, NY, cat#3595) or white opaque cell culture plates (BD Falcon, cat#353296) at a density of 3,000-10,000 cells/well in 75 μl of culture medium. Compounds were serially diluted in the appropriate medium, and 75 μl of the diluted compounds were added to the appropriate wells of the cell plate. After the addition of compounds, the cells were incubated at 37° C. in an atmosphere of 5% CO2 for 4 days. Cell viability was determined using the CellTiter-Glo® Luminescent Cell Viability Assay Kit (Promega, Madison, Wis.) for RS4-11 and MV4-11 cells and WST (2-(2-methoxy-4-nitrophenyl)-3-(4-nitrophenyl)-5-(2,4-disulfophenyl)-2H-tetrazolium, monosodium salt) Cell Counting-8 Kit (Dojindo Molecular Technologies, Inc., Rockville, Md.) for MDA-MB-231 cells according to the manufacturers' instructions.
For WST assay (MDA-MB-231 cells), WST-8 reagent was added to each well at a final concentration of 10% (v/v), and then the plates were incubated at 37° C. for 1-2 hours for color development. The absorbance was measured at 450 nm using a SPECTRAmax PLUS plate reader (Molecular Devices, Sunnyvale, Calif.). The readings were normalized to the DMSO-treated cells and the half maximal inhibitory concentration (IC50) was calculated by nonlinear regression (four parameters sigmoid fitted with variable slope, least squares fit, and no constraint) analysis using the GraphPad Prism 5 software (GraphPad Software, La Jolla, Calif.).
(§6) Cell growth inhibition of representative Compounds of the Disclosure in representative breast cancer (MDA-MB-231), acute leukemia (MV4-11), and prostate cancer cell lines (LNCaP), as determined by a WST assay, are presented in Table 3. Cells were treated with each inhibitor for 4 days.

MV4-11 cells = test: Cell growth inhibition, 4-day proliferation assay, MV4-11; format: cell-based; conditions: Homo sapiens, MV4-11, 96 h, acute leukemia cell line, 4 days treatment
Method: as §4, §5
For CellTiter-Glo assay (RS4-11 and MV4-11 cells), 100 μl of CellTiter-Glo® Reagent was added to each well, and then the plates were incubated at room temperature for 10-20 minutes. The luminescent signal was measured using a Tecan Infinite M1000 multimode microplate reader (Tecan, Morrisville, N.C.). The readings were normalized to the DMSO-treated cells and the IC50 was calculated by nonlinear regression (four parameters sigmoid fitted with variable slope, least squares fit, and no constraint) analysis using the GraphPad Prism 5 software.
as §6

LNCaP cells = test: Cell growth inhibition, 4-day proliferation assay, LNCaP; format: cell-based; conditions: Homo sapiens, 96 h, prostate cancer cell line, 4 days treatment
Method: as §4, §5, §6

Row | Compound | pIC50 (recombinant BRD4 BD1) | pIC50 (recombinant BRD4 BD2) | pIC50 (MDA-MB-231 cells) | pIC50 (MV4-11 cells) | pIC50 (LNCaP cells)
1 | COc1cc2c(cc1Br)[nH]c1ncnc(Nc3cc(C4CC4)nn3C)c12 [Cpd. No. 1, 7-Bromo-N-(3-cyclopropyl-1-methyl-1H-pyrazol-5-yl)-6-methoxy-9H-pyrimido[4,5-b]indol-4-amine] | < 6.00 | < 6.00 | – | – | –
2 | COc1cc2c(cc1-n1c(C)nnc1C)[nH]c1nc(C)nc(Nc3cc(C4CC4)nn3C)c12 [Cpd. No. 15, N-(3-cyclopropyl-1-methyl-1H-pyrazol-5-yl)-7-(3,5-dimethyl-4H-1,2,4-triazol-4-yl)-6-methoxy-2-methyl-9H-pyrimido[4,5-b]indol-4-amine] | 6.88 | 6.88 | 5.85 | – | –
3 | COc1cc2c(cc1-c1c(C)noc1C)[nH]c1nc(C)nc(Nc3cc(C4CC4)nn3-c3cn(C)cn3)c12 [Cpd. No. 14, N-(3-Cyclopropyl-1-(1-methyl-1H-imidazol-4-yl)-1H-pyrazol-5-yl)-7-(3,5-dimethylisoxazol-4-yl)-6-methoxy-2-methyl-9H-pyrimido[4,5-b]indol-4-amine] | 6.85 | 7.71 | – | – | –
4 | COc1cc2c(cc1-c1c(C)noc1C)[nH]c1nc(C)nc(Nc3cc(C4CC4)nn3-c3ccc(C(=O)O)cc3)c12 [Cpd. No. 10, 4-(3-Cyclopropyl-5-((7-(3,5-dimethylisoxazol-4-yl)-6-methoxy-2-methyl-9H-pyrimido[4,5-b]indol-4-yl)amino)-1H-pyrazol-1-yl)benzoic acid] | 7.27 | 7.12 | – | – | –
5 | COc1cc2c(cc1-c1c(C)nn(C)c1C)[nH]c1ncnc(Nc3cc(C4CC4)nn3C)c12 [Cpd. No. 21, N-(3-Cyclopropyl-1-methyl-1H-pyrazol-5-yl)-6-methoxy-7-(1,3,5-trimethyl-1H-pyrazol-4-yl)-9H-pyrimido[4,5-b]indol-4-amine] | < 6.00 | < 6.00 | – | – | –
6 | COc1cc2c(cc1-n1c(C)nnc1C)[nH]c1ncnc(Nc3cc(C4CC4)nn3C)c12 [Cpd. No. 8, N-(3-Cyclopropyl-1-methyl-1H-pyrazol-5-yl)-7-(3,5-dimethyl-4H-1,2,4-triazol-4-yl)-6-methoxy-9H-pyrimido[4,5-b]indol-4-amine] | 6.19 | 5.89 | < 6.00 | – | –
7 | COCc1nc(Nc2c3c(nn2C(C)C)CCC3)c2c(n1)[nH]c1cc(-c3c(C)noc3C)c(OC)cc12 [Cpd. No. 6, 7-(3,5-dimethylisoxazol-4-yl)-N-(2-isopropyl-2,4,5,6-tetrahydrocyclopenta[c]pyrazol-3-yl)-6-methoxy-2-(methoxymethyl)-9H-pyrimido[4,5-b]indol-4-amine] | 8.44 | 8.54 | 8.22 | 8.40 | –

The remaining lines, values ahead:

Row | pIC50 (recombinant BRD4 BD1) | pIC50 (recombinant BRD4 BD2) | pIC50 (MDA-MB-231 cells) | pIC50 (MV4-11 cells) | pIC50 (LNCaP cells) | Compound
8 | 6.99 | 7.04 | – | – | – | COc1cc2c(cc1-c1c(C)n[nH]c1C)[nH]c1ncnc(Nc3cc(C4CC4)nn3C)c12 [Cpd. No. 11, N-(3-cyclopropyl-1-methyl-1H-pyrazol-5-yl)-7-(3,5-dimethyl-1H-pyrazol-4-yl)-6-methoxy-9H-pyrimido[4,5-b]indol-4-amine]
9 | 7.74 | 7.92 | – | – | – | COc1cc2c(cc1-c1c(C)noc1C)[nH]c1nc(C)nc(Nc3cc(C4CC4)nn3-c3cnn(C)c3)c12 [Cpd. No. 12, N-(3-Cyclopropyl-1′-methyl-1′H-[1,4′-bipyrazol]-5-yl)-7-(3,5-dimethylisoxazol-4-yl)-6-methoxy-2-methyl-9H-pyrimido[4,5-b]indol-4-amine]
10 | 8.41 | 8.68 | 8.22 | 8.52 | – | COCc1nc(Nc2cc(C3CC3)nn2C(C)C)c2c(n1)[nH]c1cc(-c3c(C)noc3C)c(OC)cc12 [Cpd. No. 7, N-(3-cyclopropyl-1-isopropyl-1H-pyrazol-5-yl)-7-(3,5-dimethylisoxazol-4-yl)-6-methoxy-2-(methoxymethyl)-9H-pyrimido[4,5-b]indol-4-amine]
11 | 7.65 | 7.72 | 7.18 | – | – | COc1cc2c(cc1-c1c(C)noc1C)[nH]c1nc(C)nc(Nc3cc(C4CC4)nn3-c3ccncc3)c12 [Cpd. No. 9, N-(3-Cyclopropyl-1-(pyridin-4-yl)-1H-pyrazol-5-yl)-7-(3,5-dimethylisoxazol-4-yl)-6-methoxy-2-methyl-9H-pyrimido[4,5-b]indol-4-amine]
12 | 9.00 | 8.60 | 8.22 | – | 7.70 | CCn1nc2c(c1Nc1nc(N)nc3[nH]c4cc(-c5c(C)noc5C)c(OC)cc4c13)CCC2 [Cpd. No. 4, 7-(3,5-dimethylisoxazol-4-yl)-N4-(2-ethyl-2,4,5,6-tetrahydrocyclopenta[c]pyrazol-3-yl)-6-methoxy-9H-pyrimido[4,5-b]indole-2,4-diamine]
13 | 8.46 | 8.80 | 7.74 | – | 7.17 | COc1cc2c(cc1-c1c(C)noc1C)[nH]c1nc(N)nc(Nc3c4c(nn3C)CCC4)c12 [Cpd. No. 3, 7-(3,5-dimethylisoxazol-4-yl)-6-methoxy-N4-(2-methyl-2,4,5,6-tetrahydrocyclopenta[c]pyrazol-3-yl)-9H-pyrimido[4,5-b]indole-2,4-diamine]
14 | 9.00 | 8.68 | 7.34 | – | 8.52 | COc1cc2c(cc1-c1c(C)noc1C)[nH]c1nc(N)nc(Nc3cc(C4CC4)nn3C(C)C)c12 [Cpd. No. 2, N4-(3-cyclopropyl-1-isopropyl-1H-pyrazol-5-yl)-7-(3,5-dimethylisoxazol-4-yl)-6-methoxy-9H-pyrimido[4,5-b]indole-2,4-diamine]
15 | 7.22 | 7.46 | – | – | – | COc1cc2c(cc1-c1c(C)noc1C)[nH]c1nc(C)nc(Nc3cc(C4CC4)n(-c4cnn(C)c4)n3)c12 [Cpd. No. 13, N-(5-Cyclopropyl-1′-methyl-1′H-[1,4′-bipyrazol]-3-yl)-7-(3,5-dimethylisoxazol-4-yl)-6-methoxy-2-methyl-9H-pyrimido[4,5-b]indol-4-amine]
